The text below walks through data of ChEMBL document CHEMBL1142644, “Antineoplastic agents 440. Asymmetric synthesis and evaluation of the combretastatin A-1 SAR probes (1S,2S)- and (1R,2R)-1, 2-dihydroxy- 1-(2',3'-dihydroxy-4'-methoxyphenyl)-2-(3' ',4' ',5' '-trimethoxyphenyl)-ethane” (J Nat Prod, 2000).

Structures are written as SMILES. Values after ≈ are worked out from the molar mass of the structure shown. Active and inactive are the calls of the source. No cut-off for these calls is given here.

Test [1] can be described thus: Inhibition of bovine tubulin polymerization. Set-up: species or system Bos taurus.
The subject of a further test is P388. Briefly: Cytotoxicity against mouse P388 cells. Type of test: functional. To be noted: read-out: ED50 (the source's name).
Another test concerns FaDu. Briefly: Cytotoxicity against human FaDu cells. Format: functional.
In test [2] the test system is Streptococcus pneumoniae. Briefly: Antibacterial activity against Streptococcus pneumoniae by disk susceptibility test. Type of test: functional.
In test [3] the test system is Neisseria gonorrhoeae. Description: Antibacterial activity against Neisseria gonorrhoeae by disk susceptibility test. Format: functional.
Test [4] concerns Candida albicans. Description: Antifungal activity against Candida albicans by disk susceptibility test. Type of test: functional.
The subject of test [5] is Stenotrophomonas maltophilia. Description: Antibacterial activity against Stenotrophomonas maltophilia by disk susceptibility test. Format: functional.
Test [6] relates to Staphylococcus aureus. Briefly: Antibacterial activity against Staphylococcus aureus by disk susceptibility test. Format: functional.
Test [7] deals with Cryptococcus neoformans. Briefly: Antifungal activity against Cryptococcus neoformans by disk susceptibility test. Format: functional.
The next test deals with L1210. Description: Cytotoxicity against mouse L1210 cells. Type of test: functional. To be noted: read-out: ED50 (the source's name).
Test [8] is filed under the species Bos taurus. Description: Displacement of [3H]colchicine from bovine tubulin at inhibitor to colchicine ratio of 1:1. Set-up: scale not given: the % may be the effect or the level left. For orientation: Displacement assays read how much labelled ligand stays bound in the presence of the test substance.
For test [9], the species on record is Bos taurus. Description: Displacement of [3H]colchicine from bovine tubulin at inhibitor to colchicine ratio of 0.2:1. Details: scale not given: the % may be the effect or the level left.
A further test relates to Micrococcus luteus. Description: Antibacterial activity against Micrococcus luteus at 100 ug/disk by disk susceptibility test.
The subject of test [10] is Candida albicans. Briefly: Antifungal activity against Candida albicans at 100 ug/disk by disk susceptibility test.
The test system of another test is Escherichia coli. Briefly: Antibacterial activity against Escherichia coli at 100 ug/disk by disk susceptibility test.
In test [11] the test system is Staphylococcus aureus. Briefly: Antibacterial activity against Staphylococcus aureus at 100 ug/disk by disk susceptibility test.
A further test relates to Enterococcus faecalis. Briefly: Antibacterial activity against Enterococcus faecalis at 100 ug/disk by disk susceptibility test.
Test [12] has as its system Stenotrophomonas maltophilia. Briefly: Antibacterial activity against Stenotrophomonas maltophilia at 100 ug/disk by disk susceptibility test.
Test [13] has as its system Neisseria gonorrhoeae. Description: Antibacterial activity against Neisseria gonorrhoeae at 100 ug/disk by disk susceptibility test.
Another test deals with Enterobacter cloacae. Briefly: Antibacterial activity against Enterobacter cloacae at 100 ug/disk by disk susceptibility test.
The subject of test [14] is Streptococcus pneumoniae. Briefly: Antibacterial activity against Streptococcus pneumoniae at 100 ug/disk by disk susceptibility test.
Test [15] concerns Cryptococcus neoformans. Briefly: Antifungal activity against Cryptococcus neoformans at 100 ug/disk by disk susceptibility test.

A word on the IC50: it is the concentration that inhibits the measured activity by half. For orientation: GI50 means the concentration giving 50% growth inhibition. On to `COc1ccc([C@H](O)[C@@H](O)c2cc(OC)c(OC)c(OC)c2)cc1O`, for which the half-maximal inhibitory concentration (IC50) in test [1] came to 14 µM. In addition, the EC50 in the test with P388 stood at 2 µg/mL (≈ 5.71 µM). Moreover, in the test with FaDu, the 50% growth inhibitory concentration (GI50) was determined as 0.6 µg/mL (≈ 1.71 µM). Also, the MIC with Streptococcus pneumoniae [2] is 25 µg.

With `COc1ccc(/C=C/c2cc(OC)c(OC)c(OC)c2)c(O)c1O`, the MIC in the test with Neisseria gonorrhoeae [3] came to 6.25 µg; against Candida albicans [4] it was 50 µg; with Streptococcus pneumoniae [2], 50 µg; in test [5] it was 50 µg; against Staphylococcus aureus [6], 50 µg; against Cryptococcus neoformans [7], 50 µg.

Take `COc1ccc(/C=C\c2cc(OC)c(OC)c(OC)c2)cc1O` [COMBRETASTATIN A4]: the results for the EC50 with L1210 and with P388 were 0.007 µM and 0.0003 µg/mL (≈ 0.000948 µM), respectively. Moreover, in the test on Neisseria gonorrhoeae [3], the MIC stood at 25 µg. The GI50 in the test on FaDu is 0.0007 µg/mL (≈ 0.00221 µM).

`COc1ccc(/C=C\c2cc(OC)c(OC)c(OC)c2)c(O)c1O` [COMBRETASTATIN A-1]: in test [1], inhibition was half-maximal at 1.1 µM (IC50). Moreover, the results for the Activity in the test filed under Bos taurus [8] and in the test filed under Bos taurus [9] were 99.6% and 89%, respectively. Also, the values for the MIC in the test on Neisseria gonorrhoeae [3] and against Staphylococcus aureus [6] were 25 µg and 50 µg, respectively. Besides, the EC50 in the test with P388 was determined as 0.2 µg/mL (≈ 0.602 µM). Besides, it took 0.23 µg/mL (≈ 0.692 µM) to inhibit growth in the test with FaDu by half (GI50).

For `COc1ccc([C@@H](O)[C@H](O)c2cc(OC)c(OC)c(OC)c2)c(O)c1O`, the outcome (with Micrococcus luteus; in the test on Candida albicans [10]; in the test with Escherichia coli; in the test on Staphylococcus aureus [11]; with Enterococcus faecalis; in [12]) was inactive. Further, the result in the test with Neisseria gonorrhoeae [13], in the test with Enterobacter cloacae, in the test on Streptococcus pneumoniae [14] and in the test on Cryptococcus neoformans [15] was inactive. This compound displayed a 50% inhibitory concentration (IC50) in test [1] of 20 µM. Moreover, in the test on P388, the EC50 is 3.9 µg/mL (≈ 10.6 µM). Also, growth in the test with FaDu was halved (GI50) at 4.9 µg/mL (≈ 13.4 µM).

Consider `COc1ccc(CCc2cc(OC)c(OC)c(OC)c2)c(O)c1O`, for which the MIC with Neisseria gonorrhoeae [3] was 12.5 µg. The EC50 in the test on P388 came out at 1.7 µg/mL (≈ 5.08 µM).

For `COc1ccc(/C=C/c2cc(OC)c(OC)c(OC)c2)cc1O`, the result (in the test with Micrococcus luteus; in the test with Candida albicans [10]; with Escherichia coli; with Staphylococcus aureus [11]; with Enterococcus faecalis; in test [12]) was inactive. Also, the result in the test on Neisseria gonorrhoeae [13], with Enterobacter cloacae, in the test on Streptococcus pneumoniae [14] and in the test with Cryptococcus neoformans [15] was inactive.

Consider `COc1ccc([C@H](O)[C@@H](O)c2cc(OC)c(OC)c(OC)c2)c(O)c1O`, for which the IC50 in test [1] was 10 µM. The MIC in the test with Neisseria gonorrhoeae [3] is 25 µg. Besides, in the test on P388, the EC50 came to 2.9 µg/mL (≈ 7.92 µM). Besides, in the test with FaDu, the 50% growth inhibitory concentration (GI50) is > 10 µg/mL.

For the compound `COc1cc(/C=C\c2ccc(OC)c(OP(=O)([O-])[O-])c2OP(=O)([O-])[O-])cc(OC)c1OC.[Na+].[Na+].[Na+].[Na+]`, the EC50 with P388 is < 0.01 µg/mL.

For `COc1cc(CCc2ccc(OC)c(OP(=O)([O-])[O-])c2OP(=O)([O-])[O-])cc(OC)c1OC.[Na+].[Na+].[Na+].[Na+]`, in the test with P388, the EC50 came out at 0.3 µg/mL.

In the case of `COc1ccc([C@@H](O)[C@H](O)c2cc(OC)c(OC)c(OC)c2)cc1O`, the IC50 in [1] was > 40 µM. Further, the EC50 in the test on P388 was 19 µg/mL (≈ 54.2 µM). In addition, in the test with FaDu, the concentration for 50% growth inhibition (GI50) came to 2.1 µg/mL (≈ 5.99 µM). The MIC against Streptococcus pneumoniae [2] is 50 µg.

In the case of `COc1ccc(/C=C\c2cc(OC)c(OC)c(OC)c2)cc1OP(=O)([O-])[O-].[Na+].[Na+]` [FOSBRETABULIN DISODIUM], the MIC in the test on Neisseria gonorrhoeae [3] stood at 50 µg. Besides, in the test on P388, the EC50 worked out at 0.0004 µg/mL.
